IC50 data for 22 compounds are collected here from US11365192B2, “Pyridine compound substituted with azole” (TAISHO PHARMACEUTICAL CO., LTD., priority 2017, dated 2022).

Structures are written as SMILES. pIC50: −log10 of the molar value.

The target in experiment [1] is human CYP4F2 (Homo sapiens (Human), UniProt P78329). Nature of the experiment: Inhibition test against 20-HETE producing enzyme CYP4F2 (luciferine derivative, luminescence). Type of experiment: biochemical. A digest of the protocol:
(§1)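 IC50 derived from luminescence after 60 min at room temperature with membrane fractions of E. coli expressing each human CYP (100 μg/mL protein). For CYP4A11, 60 μM luciferin derivative in 100 mM Tris-HCl pH 7.5 with NADPH-regenerating system; for CYP4F2, 2.5 μM substrate, 1 mM NADPH, 50 mM KPO4 pH 7.4.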

Experiment [2] concerns the target human CYP4A11 (Homo sapiens (Human), UniProt Q02928). Briefly: Inhibition test against 20-HETE producing enzyme CYP4A11 (luciferine derivative, luminescence). Type of experiment: biochemical. Put shortly: as §1
Setting [3] is: human CYP4F2, luciferine derivative, luminescence.
Setting [4] is: human CYP4A11, luciferine derivative, luminescence.
The mark [5] stands for this setting: E. coli membrane fraction expressing human CYP4F2, 2.5 μM luciferine derivative, room temperature 60 minutes.
Where [6] appears, read: E. coli membrane fraction expressing human CYP4A11, 60 μM luciferine derivative, room temperature 60 minutes.

Sequence of human CYP4A11 (Q02928 5-519): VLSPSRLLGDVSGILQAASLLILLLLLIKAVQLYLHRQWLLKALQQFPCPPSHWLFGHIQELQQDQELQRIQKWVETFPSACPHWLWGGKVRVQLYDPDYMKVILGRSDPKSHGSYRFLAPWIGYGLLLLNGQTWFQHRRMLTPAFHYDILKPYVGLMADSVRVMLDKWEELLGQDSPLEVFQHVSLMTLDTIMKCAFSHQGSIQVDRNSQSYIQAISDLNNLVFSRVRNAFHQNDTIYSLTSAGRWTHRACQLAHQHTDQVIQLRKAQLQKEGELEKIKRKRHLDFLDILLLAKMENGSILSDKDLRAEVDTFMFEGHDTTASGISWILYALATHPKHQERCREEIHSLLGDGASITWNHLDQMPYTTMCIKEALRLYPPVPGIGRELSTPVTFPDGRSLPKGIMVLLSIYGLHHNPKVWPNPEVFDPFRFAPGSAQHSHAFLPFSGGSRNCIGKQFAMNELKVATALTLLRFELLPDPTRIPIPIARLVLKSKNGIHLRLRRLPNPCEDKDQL
Sequence of human CYP4F2 (P78329 5-520): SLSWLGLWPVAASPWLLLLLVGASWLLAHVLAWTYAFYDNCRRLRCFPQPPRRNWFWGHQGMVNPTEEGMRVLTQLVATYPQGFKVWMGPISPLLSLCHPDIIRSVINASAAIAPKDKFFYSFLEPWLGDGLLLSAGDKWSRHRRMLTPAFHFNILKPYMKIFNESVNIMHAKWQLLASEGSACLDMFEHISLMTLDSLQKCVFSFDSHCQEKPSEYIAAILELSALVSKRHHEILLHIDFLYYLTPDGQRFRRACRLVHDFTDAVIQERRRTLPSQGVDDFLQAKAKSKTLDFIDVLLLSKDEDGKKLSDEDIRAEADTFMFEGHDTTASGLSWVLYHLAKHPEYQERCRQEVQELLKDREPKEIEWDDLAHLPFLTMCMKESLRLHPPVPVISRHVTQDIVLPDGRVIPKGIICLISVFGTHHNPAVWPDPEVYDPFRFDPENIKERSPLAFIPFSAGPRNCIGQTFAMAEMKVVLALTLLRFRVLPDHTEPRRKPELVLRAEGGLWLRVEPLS

As a reminder, the pIC50 is −log10 of the IC50, conventionally taken in molar units. A higher pIC50 goes with a small IC50. `CC(C)(Oc1ccc(CCCOc2ccc(-c3ccn[nH]3)nc2)cn1)C(=O)O` [Example 71-38]: the pIC50 in experiment [1] (setting [3]) was 5.72; in experiment [2] (setting [4]), 5.85.
Regarding `CNS(=O)(=O)c1cccc(COc2ccc(-c3ccn[nH]3)nc2)c1` [Example 23-1, N-Methyl-3-[[6-(1-H-pyrazol-5-yl)-3-pyridinyl]oxymethyl]benzenesulfonamide], the negative-log IC50 (pIC50) was 6.66 in experiment [1] (setting [5]) and 7.44 in experiment [2] (setting [6]).
In the case of `CC(C)(C(=O)O)c1cccc(CCCOc2ccc(-c3ccn[nH]3)nc2)c1` [Example 32-2], the values for the pIC50 in experiment [1] (setting [5]) and in experiment [2] (setting [6]) were 5.89 and 7.66, respectively.
On to `O=C(O)CCCc1cccc(CCCOc2ccc(-c3ccn[nH]3)nc2)c1` [Example 30-4], for which the pIC50 was 6.46 in experiment [1] (setting [5]) and 6.85 in experiment [2] (setting [6]).
For the compound `NS(=O)(=O)c1ccc(C(=O)N2CCC[C@@H](COc3ccc(-c4ccn[nH]4)nc3)C2)cc1` [Example 41-2], the pIC50 in experiment [1] (setting [5]) was 6.35; in experiment [2] (setting [6]) it was 6.48.
For `Oc1ccccc1CCOc1ccc(-c2ccn[nH]2)nc1` [Example 13-2], the figures for the pIC50 in experiment [1] (setting [5]) and in experiment [2] (setting [6]) were 7.89 and 6.40, respectively.
In the case of `CN(CCO)C(=O)CCc1cccc(COc2ccc(-c3ccn[nH]3)nc2)c1` [Example 43-3], the pIC50 in experiment [1] (setting [3]) was 6.77; in experiment [2] (setting [4]), 6.51.
For the compound `O=C(O)C1CCc2ccc(COc3ccc(-c4[nH]ncc4Cl)nc3)cc2O1` (single isomer, unassigned) [Example 75-8], the pIC50 in experiment [1] (setting [3]) and in experiment [2] (setting [4]) was 7.17 throughout.
On to `CC(C)(CC(=O)N1CCCC(CCCOc2ccc(-c3ccn[nH]3)nc2)C1)C(=O)O` (centres unmarked) [Example 1-32], for which the pIC50 in experiment [1] (setting [5]) was 5.42; in experiment [2] (setting [6]), 5.03.
For `O=C(CCCC1(C(=O)O)CCCC1)N1CCC(COc2ccc(-c3ccn[nH]3)nc2)CC1` [Example 47-1, 1-[4-Oxo-4-[4-[[6-(1H-pyrazol-5-yl)-3-pyridinyl]oxymethyl]-1-piperidinyl]butyl]-1-cyclopentanecarboxylic Acid] the same measures were 6.82 and 6.08.
With `O=C(O)[C@H]1C[C@@H]1c1ccc(CCOc2ccc(-c3ccn[nH]3)nc2)cc1` [Example 70-10-2], the pIC50 in experiment [1] (setting [3]) is 6.47; in experiment [2] (setting [4]), 6.35.
For `O=C(O)/C=C/c1ccc(CCOc2ccc(-c3ccn[nH]3)nc2)cc1F` [Example 70-5], in that order: 7.57 and 7.37.
Turning to `CCS(=O)(=O)NCC(=O)N1CCC[C@@H](COc2ccc(-c3ccn[nH]3)nc2)C1` [Example 41-5], the pIC50 is 6.26 in experiment [1] (setting [5]) and 5.96 in experiment [2] (setting [6]).
In the case of `Oc1cc(F)cc(COc2ccc(-c3ccn[nH]3)nc2)c1` [Example 12-3], the results for the pIC50 in experiment [1] (setting [5]) and in experiment [2] (setting [6]) were 7.60 and 6.54, respectively.
`CC(C)(C(=O)O)n1ccc(CCCCOc2ccc(-c3ccn[nH]3)nc2)n1` [Example 8-14]: the values for the pIC50 in experiment [1] (setting [5]) and in experiment [2] (setting [6]) were 4.96 and 7.17, respectively.
Consider `CCCNC(=O)c1cccc(COc2ccc(-c3ccn[nH]3)nc2)c1` [Example 42-2], for which the values for the pIC50 in experiment [1] (setting [5]) and in experiment [2] (setting [6]) were 7.60 and 6.96, respectively.
For `CN(CCCCCCOc1ccc(-c2ccn[nH]2)nc1)C(=O)C1(C(=O)O)CCCC1` [Example 3-10], the pIC50 is 6.60 in experiment [1] (setting [5]) and 7.04 in experiment [2] (setting [6]).
In the case of `CC(C)(OCCCCCCCCOc1ccc(-c2ccn[nH]2)nc1)C(=O)O` [Example 72-1], the pIC50 in experiment [1] (setting [3]) was 7.27; in experiment [2] (setting [4]), 6.35.
On to `O=C(CCc1cccc(COc2ccc(-c3ccn[nH]3)nc2)c1)N1CC(F)(F)C1` [Example 43-2], for which the pIC50 in experiment [1] (setting [3]) is 7.32; in experiment [2] (setting [4]) it was 7.23.
For `CC(C)(CCNC(=O)c1cccc(COc2ccc(-c3ccn[nH]3)nc2)c1)C(=O)O` [Example 45-14], the results for the negative-log IC50 (pIC50) in experiment [1] (setting [3]) and in experiment [2] (setting [4]) were 6.39 and 7.29, respectively.
Regarding `CC(C)(OCCCOCCCCOc1ccc(-c2ccn[nH]2)nc1)C(=O)O` [Example 9-3], the pIC50 in experiment [1] (setting [5]) is 6.31; in experiment [2] (setting [6]) it was 5.85.
In the case of `O=C(O)Cc1ccc(CCCOc2ccc(-c3ccn[nH]3)nc2)cc1` [Example 8-8], the pIC50 in experiment [1] (setting [5]) was 5.96; in experiment [2] (setting [6]), 6.59.
